Key:
[1] = tested on: CCRF-CEM (childhood T-cell acute lymphoblastic leukaemia); test: MTS cytotoxicity assay, CCRF-CEM; type: cell-based; details: Homo sapiens, 72 h, read-out: IC50 cytotoxic activity CCRF-CEM
Protocol: (§1) The p53 deficient variant, HCT116p53−/−, was purchased from Horizon Discovery (Cambridge, UK). The daunorubicin-resistant CCRF-CEM cell line CEM-DNR bulk and paclitaxel-resistant K562-TAX sublines were developed in-house by exposing parental cell lines to escalating concentrations of daunorubicin and paclitaxel, respectively. Cells were maintained in the recommended culture medium (Sigma-Aldrich, St. Louis, MO) supplemented with 10% foetal calf serum, 100 U/mL penicillin, and 100 μg/mL streptomycin. The HUVEC line was obtained from PromoCell (Heidelberg, Germany). The cells were cultured in endothelial cell growth medium with SupplementMix for endothelial cells (PromoCell, Heidelberg, Germany). The incubation conditions were a humidified atmosphere of 95% air and 5% CO2 at 37 °C[10]. Cells were seeded in 384-well plates and after overnight incubation treated with compounds. All tested compounds were dissolved in 100% DMSO, and fourfold serial dilutions were performed using an Echo550 liquid handler (Labcyte, San Jose, CA). The experiments were performed in technical duplicates and three biological replicates. Cells were incubated with compounds for 72 h and thereafter 5 μL of MTS reagent was added to each well.

[2] = tested on: CEM-DNR (daunorubicin resistant variant of CCRF-CEM); test: MTS cytotoxicity assay, CEM-DNR; type: cell-based, human; details: Homo sapiens, CEM-DNR, 72 h, read-out: IC50 cytotoxic activity CEM-DNR
Protocol: as §1

[3] = tested on: K562 (chronic myelogenous leukaemia); test: MTS cytotoxicity assay, K562; type: cell-based; details: Homo sapiens, K562, 72 h, read-out: IC50 cytotoxic activity K562
Protocol: as §1

[4] = tested on: K562-TAX (paclitaxel-resistant variant of K562); test: MTS cytotoxicity assay, K562-TAX; type: cell-based, human; details: Homo sapiens, K562-Tax, 72 h, read-out: IC50 cytotoxic activity K562-TAX
Protocol: as §1

[5] = tested on: A549 (lung adenocarcinoma); test: MTS cytotoxicity assay, A549; type: cell-based, human; details: for IC50: Homo sapiens, A549, 72 h, read-out: IC50 cytotoxic activity A549
Protocol: as §1

[6] = tested on: HCT116 (colorectal adenocarcinoma); test: MTS cytotoxicity assay, HCT116; type: cell-based; details: Homo sapiens, HCT-116, 72 h, read-out: IC50 cytotoxic activity HCT116
Protocol: as §1

[7] = tested on: HCT116p53−/− (p53 gene null variant of HCT116); test: MTS cytotoxicity assay, HCT116p53−/−; type: cell-based; details: Homo sapiens, HCT-116, 72 h, read-out: IC50 cytotoxic activity HCT116p53-
Protocol: as §1

U2OS (osteosarcoma) = test: MTS cytotoxicity assay, U2OS; type: cell-based, human; details: for IC50: Homo sapiens, U2OS, 72 h, read-out: IC50 cytotoxic activity U2OS
Protocol: as §1

[8] = MTS cytotoxicity assay, MRC-5; type: cell-based; details: human
Protocol: as §1

[9] = MTS cytotoxicity assay, BJ; type: cell-based; details: human
Protocol: as §1

[10] = MTS cytotoxicity assay, HUVEC; type: cell-based; details: human
Protocol: as §1

porcine brain tubulin = molecular target: T1, porcine brain tubulin (Sus scrofa, UniProt P02550+P02554); test: Tubulin polymerisation assay; type: biochemical; details: 10 μmol/L, Vmax relative to DMSO
T1 construct: purchased Cytoskeleton, Denver, CO; host or cells: porcine brain (tissue-purified)
T1 sequence (P02550 whole entry): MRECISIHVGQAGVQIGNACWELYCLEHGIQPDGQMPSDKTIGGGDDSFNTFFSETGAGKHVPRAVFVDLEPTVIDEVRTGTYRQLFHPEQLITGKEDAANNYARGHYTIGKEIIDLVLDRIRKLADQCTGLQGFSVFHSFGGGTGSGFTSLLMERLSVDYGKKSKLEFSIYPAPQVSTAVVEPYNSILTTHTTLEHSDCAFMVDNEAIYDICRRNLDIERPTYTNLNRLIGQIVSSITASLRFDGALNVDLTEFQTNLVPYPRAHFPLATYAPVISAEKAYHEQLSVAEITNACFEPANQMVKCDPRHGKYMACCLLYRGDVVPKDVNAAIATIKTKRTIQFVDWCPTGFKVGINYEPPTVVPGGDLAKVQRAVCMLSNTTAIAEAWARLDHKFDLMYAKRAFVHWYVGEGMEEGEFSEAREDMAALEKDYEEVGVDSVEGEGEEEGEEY
T1 sequence (P02554 whole entry): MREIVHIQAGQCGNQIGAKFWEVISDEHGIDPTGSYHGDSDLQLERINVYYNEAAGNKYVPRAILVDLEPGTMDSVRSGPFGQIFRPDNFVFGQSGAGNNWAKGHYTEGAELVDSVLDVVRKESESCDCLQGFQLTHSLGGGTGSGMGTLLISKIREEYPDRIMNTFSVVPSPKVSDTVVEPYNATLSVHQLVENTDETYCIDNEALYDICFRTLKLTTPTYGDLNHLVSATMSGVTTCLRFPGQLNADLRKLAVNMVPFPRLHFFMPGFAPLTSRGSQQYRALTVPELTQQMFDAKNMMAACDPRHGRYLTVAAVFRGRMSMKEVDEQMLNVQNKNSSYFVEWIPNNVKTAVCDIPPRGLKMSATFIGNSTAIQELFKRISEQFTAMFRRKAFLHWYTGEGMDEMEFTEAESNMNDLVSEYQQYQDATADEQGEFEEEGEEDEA
Protocol: Tubulin polymerisation assay kit (Cytoskeleton, Denver, CO) was used according to the manufacturer’s instructions. Polymerisation of porcine brain tubulin (>99% purity) was measured using an EnVision Multilabel Plate Reader (PerkinElmer, Waltham, MA) at 37 °C, in the presence of either 10 μmol/L test compounds or DMSO. Maximum polymerisation velocity (Vmax) was calculated from the polymerisation curves. Data visualisation was performed in OriginPro 2018b (b9.5.5.409) software (OriginLab Corporation, Northampton, MA)[10].

CCRF-CEM lymphoblasts [11] = test: Cell cycle analysis by flow cytometry (propidium iodide); type: cell-based, human
Protocol: (§2) To further characterise the mode of action of studied compounds, we analysed the cell cycle profile of CCRF-CEM cells treated with compounds for 24 h. […] The compounds ED1–ED9 and ED12 induced arrest in G2/M phase of the cell cycle (Figure 2(A)). To differentiate between G2 block and mitotic arrest, we used phospho-histone H3 (Ser10) mitotic marker (Figure 2(B)). […] Generally, dimers induced a dose-dependent increase of sub G1 cell population with fragmented DNA except for ED2 and ED4 (Figure 2(C)). […] To assess the proliferation of treated cells, they were subjected to 5-bromo-2-deoxyuridine (BrDU) labelling. […] Analogously, changes in 5-bromouridine (BrU) incorporation were examined to monitor overall RNA synthesis.
(§3) Treated CCRF-CEM cells were harvested, washed with ice-cold phosphate-buffered saline (PBS), fixed in cold 70% ethanol and stored at −20 °C. Prior to analysis, fixed cells were permeabilised with 0.25% Triton X-100 in PBS for 15 min, blocked in 1% bovine serum, and incubated with anti-phospho-Histone H3 (Ser^10) antibody (Merck Millipore, Burlington, MA). Subsequently, the cells were treated with 50 μg/mL RNAse, stained with propidium iodide and analysed by FACSCalibur (Becton Dickinson, Franklin Lakes, NJ) flow cytometer at 488 nm. Cell cycle distribution (G1, S, and G2/M) was analysed using ModFitLT software (Verity, Topsham, ME), and reflects only viable population prior to the fixing procedure. Particles with lower propidium iodide content than G1 phase cells were classified as non-viable cells with fragmented DNA. Flow cytometry data visualisation was performed using OriginPro 2018b (b9.5.5.409) software (OriginLab Corporation, Northampton, MA)[10].

CCRF-CEM lymphoblasts [12] = test: Phospho-histone H3 (Ser10) mitotic marker, flow cytometry; type: cell-based, human
Protocol: as §2, §3

CCRF-CEM lymphoblasts [13] = test: BrDU incorporation analysis (DNA synthesis); type: cell-based, human
Protocol: as §2
Thirty minutes before harvesting, cells were pulse-labelled with 10 μM BrDU. After overnight fixation in ice-cold 70% ethanol, cells were resuspended in 2 M HCl for 30 min at room temperature (RT), then washed with 0.1 M Na2B4O7 and blocked with PBS containing 0.5% Tween-20 and 1% BSA. BrDU incorporation was analysed using anti-BrdU antibody clone MoBu-1 (Exbio, Vestec, Czech Republic) and a secondary anti-mouse-FITC antibody (Sigma-Aldrich, St. Louis, MO). Cells were washed with PBS and stained with 0.1 mg/mL propidium iodide and 0.5 mg/mL RNase A for 1 h at RT and analysed by flow cytometry using a 488 nm single beam laser (FACSCalibur, Becton Dickinson, Franklin Lakes, NJ). The percentage of cells with incorporated BrDU was analysed using CellQuest software.

CCRF-CEM lymphoblasts [14] = test: BrU incorporation analysis (RNA synthesis); type: cell-based, human
Protocol: as §2
Prior to the trypsinisation, cells were treated with 1 mM BrU for 30 min. Subsequently, the cells were fixed in 1% paraformaldehyde with 0.05% of NP-40 for 15 min at RT and stored overnight at 4 °C. Fixed cells were washed with 1% glycine in PBS and stained with primary anti-BrdU antibody clone MoBu-1 crossreacting with BrU (Exbio, Vestec, Czech Republic) for 30 min at RT, washed with PBS and labelled with secondary anti-mouse-FITC antibody (Sigma-Aldrich, St. Louis, MO). Following 1-h incubation in 1% paraformaldehyde containing 0.05% NP-40, cells were stained with propidium iodide (0.1 mg/mL) and treated with RNase A (0.5 mg/mL) for 1 h at RT. The percentage of BrU positive cells was quantified using CellQuest software.

Structure (SMILES)	IC50 [1] [µM]	IC50 [2] [µM]	IC50 [3] [µM]	IC50 [4] [µM]	IC50 [5] [µM]	IC50 [6] [µM]	IC50 [7] [µM]	IC50 (U2OS (osteosarcoma)) [µM]	IC50 at 72 h [8] [µM]	IC50 at 72 h [9] [µM]	IC50 at 72 h [10] [µM]	inhibitory activity against tubulin polymerisation (in words) (porcine brain tubulin)	<G1 (sub-G1, fragmented DNA), % of positive cells (CCRF-CEM lymphoblasts [11]; 1×IC50, 24 h) [%]	>G2/M (polyploidy), % of positive cells (CCRF-CEM lymphoblasts [11]; 1×IC50, 24 h) [%]	G0/G1, % of positive cells (CCRF-CEM lymphoblasts [11]; 1×IC50, 24 h) [%]	G2/M, % of positive cells (CCRF-CEM lymphoblasts [11]; 1×IC50, 24 h) [%]	S, % of positive cells (CCRF-CEM lymphoblasts [11]; 1×IC50, 24 h) [%]	<G1 (sub-G1, fragmented DNA), % of positive cells (CCRF-CEM lymphoblasts [11]; 5×IC50, 24 h) [%]	>G2/M (polyploidy), % of positive cells (CCRF-CEM lymphoblasts [11]; 5×IC50, 24 h) [%]	G0/G1, % of positive cells (CCRF-CEM lymphoblasts [11]; 5×IC50, 24 h) [%]	further results
C[C@]12CC[C@@H]3c4ccc(O)cc4CC[C@H]3[C@@H]1CC[C@@]2(O)c1cn(Cc2cc(O)cc(Cn3cc([C@]4(O)CC[C@H]5[C@@H]6CCc7cc(O)ccc7[C@H]6CC[C@@]54C)nn3)c2)nn1 [ED2, (17β,17′β)-17,17′-[(5-Hydroxybenzene-1,3-diyl)bis(methanediyl-1H-1,2,3-triazole-1,4-diyl)]bisestra-1,3,5(10)-triene-3,17-diol]	1.7 ± 0.19	> 50	1.48 ± 0.19	> 50	6.69 ± 0.79	3.57 ± 0.66	4.26 ± 0.94	> 50	> 50	> 50	< 0.0122	weak in vitro inhibition	28.21	8.33	2.32	64.90	32.78	19.20	8.13	0.47	G2/M, % of positive cells (CCRF-CEM lymphoblasts [11]; 5×IC50, 24 h): 58.40%; S, % of positive cells (CCRF-CEM lymphoblasts [11]; 5×IC50, 24 h): 41.13%; pH3Ser10, % of positive cells (CCRF-CEM lymphoblasts [12]; 1×IC50, 24 h): 52.73%; pH3Ser10, % of positive cells (CCRF-CEM lymphoblasts [12]; 5×IC50, 24 h): 47.87%; BrDU, % of positive cells (CCRF-CEM lymphoblasts [13]; 1×IC50, 24 h): 15.09%; BrDU, % of positive cells (CCRF-CEM lymphoblasts [13]; 5×IC50, 24 h): 21.14%; BrU, % of positive cells (CCRF-CEM lymphoblasts [14]; 1×IC50, 24 h): 41.11%; BrU, % of positive cells (CCRF-CEM lymphoblasts [14]; 5×IC50, 24 h): 41.82%
CC(=O)Oc1cc(Cn2cc([C@]3(O)CC[C@H]4[C@@H]5CCc6cc(O)ccc6[C@H]5CC[C@@]43C)nn2)cc(Cn2cc([C@]3(O)CC[C@H]4[C@@H]5CCc6cc(O)ccc6[C@H]5CC[C@@]43C)nn2)c1 [ED4, 3,5-Bis({4-[(17β)-3,17-dihydroxyestra-1,3,5(10)-trien-17-yl]-1H-1,2,3-triazol-1-yl}methyl)phenyl acetate]	1.09 ± 0.11	> 50	0.49 ± 0.04	> 50	> 50	2.06 ± 0.18	2.15 ± 0.1	> 50	> 50	> 50	0.016 ± 0.006	comparable or better inhibitory activity	61.81	6.75	25.61	40.50	33.89	31.27	10.24	8.75	IC50 cytotoxic activity A549 [5]: did not exhibit activity; IC50 cytotoxic activity U2OS (U2OS (osteosarcoma)): did not exhibit activity; G2/M, % of positive cells (CCRF-CEM lymphoblasts [11]; 5×IC50, 24 h): 71.41%; S, % of positive cells (CCRF-CEM lymphoblasts [11]; 5×IC50, 24 h): 19.84%; mitosis-specific phosphorylation of histone H3 (in words) (CCRF-CEM lymphoblasts [12]; 1× and 5×IC50, 24 h): did not induce an increase of mitosis-specific phosphorylation of histone H3; pH3Ser10, % of positive cells (CCRF-CEM lymphoblasts [12]; 1×IC50, 24 h): 1.25%; pH3Ser10, % of positive cells (CCRF-CEM lymphoblasts [12]; 5×IC50, 24 h): 0.12%; BrDU, % of positive cells (CCRF-CEM lymphoblasts [13]; 1×IC50, 24 h): 26.50%; BrDU, % of positive cells (CCRF-CEM lymphoblasts [13]; 5×IC50, 24 h): 7.16%; BrU, % of positive cells (CCRF-CEM lymphoblasts [14]; 1×IC50, 24 h): 66.58%; BrU, % of positive cells (CCRF-CEM lymphoblasts [14]; 5×IC50, 24 h): 3.26%
Cc1cc(Cn2cc([C@]3(O)CC[C@H]4[C@@H]5CCc6cc(O)ccc6[C@H]5CC[C@@]43C)nn2)c(O)c(Cn2cc([C@]3(O)CC[C@H]4[C@@H]5CCc6cc(O)ccc6[C@H]5CC[C@@]43C)nn2)c1 [ED6, (17β,17′β)-17,17′-[(2-Hydroxy-5-methylbenzene-1,3-diyl)bis(methanediyl-1H-1,2,3-triazole-1,4-diyl)]bisestra-1,3,5(10)-triene-3,17-diol]	1.54 ± 0.25	> 50	1.39 ± 0.21	> 50	8.6 ± 2.22	1.74 ± 0.11	1.87 ± 0.13	5.06 ± 1.68	> 50	> 50	< 0.0122	comparable or better inhibitory activity	11.43	6.19	32.46	29.74	37.81	36.87	9.85	8.21	G2/M, % of positive cells (CCRF-CEM lymphoblasts [11]; 5×IC50, 24 h): 73.29%; S, % of positive cells (CCRF-CEM lymphoblasts [11]; 5×IC50, 24 h): 18.50%; pH3Ser10, % of positive cells (CCRF-CEM lymphoblasts [12]; 1×IC50, 24 h): 9.07%; pH3Ser10, % of positive cells (CCRF-CEM lymphoblasts [12]; 5×IC50, 24 h): 0.76%; BrDU, % of positive cells (CCRF-CEM lymphoblasts [13]; 1×IC50, 24 h): 37.25%; BrDU, % of positive cells (CCRF-CEM lymphoblasts [13]; 5×IC50, 24 h): 7.83%; RNA synthesis, BrU incorporation (in words) (CCRF-CEM lymphoblasts [14]; 1× and 5×IC50, 24 h, gated remaining live cells): high rate of RNA synthesis; BrU, % of positive cells (CCRF-CEM lymphoblasts [14]; 1×IC50, 24 h): 67.97%; BrU, % of positive cells (CCRF-CEM lymphoblasts [14]; 5×IC50, 24 h): 39.43%

Source: article PMC467089, “Click estradiol dimers with novel aromatic bridging units: synthesis and anticancer evaluation” (Journal of Enzyme Inhibition and Medicinal Chemistry, 2024)
